ChEMBL document CHEMBL1201862, “PubChem BioAssay data set” (2004)
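Where inhibition never reached the appropriate level, the endpoint shown equals the highest concentration tested. Otherwise, values were interpolated linearly from a five-concentration, 48-hour dose response in 96-well plates. GI50: concentration for 50% inhibition of growth.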 Activity calls are given as the source filed them. Rule as the data show it: active = GI50 up to about 1.1 µM and inactive = higher.

What was measured:
Experiment in all cases: inhibition of tumour cell growth, NCI panel, 48 h
[1] = system: SK-MEL-28
[2] = system: NCI-H226
[3] = system: ACHN
[4] = system: Hs-578T
[5] = system: UACC-257
[6] = system: HCT-15
[7] = system: A549
[8] = system: CCRF-CEM
[9] = system: U-251
[10] = system: RPMI-8226
[11] = system: HCT-116
[12] = system: T47D
[13] = system: COLO 205
[14] = system: NCI-H460
[15] = system: SF-295
[16] = system: HOP-92
[17] = system: SN12C
[18] = system: HCC 2998
[19] = system: UO-31
[20] = system: HL-60

| SMILES | GI50 [1] | GI50 [2] | GI50 [3] | GI50 [4] | GI50 [5] | GI50 [6] [µM] | GI50 [7] | GI50 [8] | GI50 [9] | GI50 [10] | GI50 [11] | GI50 [12] | GI50 [13] | GI50 [14] | GI50 [15] | GI50 [16] | GI50 [17] | GI50 [18] | GI50 [19] | GI50 [20] |
| --- | --- | --- | --- | --- | --- | --- | --- | --- | --- | --- | --- | --- | --- | --- | --- | --- | --- | --- | --- | --- |
| CCCCSCc1nc2nc(Cl)c(Cl)nc2[nH]1 | 23 µM (inactive) | 33.7 µM (inactive) | 23.9 µM (inactive) | 35.6 µM (inactive) | 16.1 µM (inactive) | 23.4 | 28.8 µM (inactive) | 11.3 µM (inactive) | 20.9 µM (inactive) | 12.9 µM (inactive) | 19.5 µM (inactive) | 15.7 µM (inactive) | 21.3 µM (inactive) | 20.6 µM (inactive) | 14.5 µM (inactive) | 24.5 µM (inactive) | 22.1 µM (inactive) |  |  |  |
| O=C1CCCN1C(=O)CS(=O)(=O)c1ccccc1 | > 100 µM (inactive) | > 100 µM (inactive) | > 100 µM (inactive) | > 100 µM (inactive) | > 100 µM (inactive) | > 100 | > 100 µM (inactive) | > 100 µM (inactive) | > 100 µM (inactive) | > 100 µM (inactive) | > 100 µM (inactive) | > 100 µM (inactive) | > 100 µM (inactive) | > 100 µM (inactive) | > 100 µM (inactive) | > 100 µM (inactive) | > 100 µM (inactive) | > 100 µM (inactive) | > 100 µM (inactive) |  |
| Nc1ccc(-c2ncc3cc(-c4cccc(-c5cc6cnc(-c7ccc(N)cc7)nc6c6ccccc56)c4)c4ccccc4c3n2)cc1 | > 100 µM (inactive) | > 100 µM (inactive) | > 100 µM (inactive) | > 100 µM (inactive) | > 100 µM (inactive) | > 100 | > 100 µM (inactive) | > 100 µM (inactive) | > 100 µM (inactive) | > 100 µM (inactive) | > 100 µM (inactive) | > 100 µM (inactive) | 35.3 µM (inactive) | > 100 µM (inactive) | > 100 µM (inactive) | > 100 µM (inactive) | > 100 µM (inactive) | > 100 µM (inactive) | > 100 µM (inactive) |  |
| S=C(N/N=C(/c1ccccc1)c1ccccn1)N1CCCCCC1 |  | 0.0379 µM (active) | < 0.0421 µM (active) | 0.3 µM (active) | < 0.015 µM (active) | < 0.0213 | < 0.0371 µM (active) | < 0.0133 µM (active) | < 0.0252 µM (active) |  | 0.01 µM (active) | 0.0843 µM (active) | < 0.018 µM (active) | < 0.0283 µM (active) | < 0.0374 µM (active) | 0.55 µM (active) |  | 0.176 µM (active) | 0.0904 µM (active) | < 0.0103 µM (active) |
| N/C(=N\N=C\c1cc2ccccc2s1)c1cnccn1 | > 100 µM (inactive) | > 100 µM (inactive) | > 100 µM (inactive) | > 100 µM (inactive) | > 100 µM (inactive) | > 100 | > 100 µM (inactive) | 53.3 µM (inactive) | > 100 µM (inactive) | > 100 µM (inactive) | > 100 µM (inactive) | 8.93 µM (inactive) | > 100 µM (inactive) | > 100 µM (inactive) | 84.5 µM (inactive) | > 100 µM (inactive) | > 100 µM (inactive) |  | > 100 µM (inactive) | > 100 µM (inactive) |
| NC(=O)CC(N)C(=O)NC(Cc1ccccc1)C(=O)NC(Cc1ccccc1)NC(=O)C(Cc1c[nH]c2ccccc12)C(=O)O (configuration not stated) | > 100 µM (inactive) | > 100 µM (inactive) | > 100 µM (inactive) | > 100 µM (inactive) | > 100 µM (inactive) | > 100 | > 100 µM (inactive) | > 100 µM (inactive) | > 100 µM (inactive) | > 100 µM (inactive) | > 100 µM (inactive) | > 100 µM (inactive) | > 100 µM (inactive) | > 100 µM (inactive) | > 100 µM (inactive) | > 100 µM (inactive) | > 100 µM (inactive) | > 100 µM (inactive) | > 100 µM (inactive) |  |
| COc1ccc(CCCNC(=O)Cc2ccccc2CO)cc1OC | > 100 µM (inactive) | > 100 µM (inactive) | > 100 µM (inactive) | > 100 µM (inactive) | > 100 µM (inactive) | > 100 | > 100 µM (inactive) | > 100 µM (inactive) | > 100 µM (inactive) |  | > 100 µM (inactive) | > 100 µM (inactive) | > 100 µM (inactive) | > 100 µM (inactive) |  | > 100 µM (inactive) | > 100 µM (inactive) | > 100 µM (inactive) | > 100 µM (inactive) | > 100 µM (inactive) |
| Cc1noc(/N=C2\C=C(O)C(=O)c3ccccc32)c1C | 58.1 µM (inactive) | 23.8 µM (inactive) | 13 µM (inactive) | 2.24 µM (inactive) | 4.19 µM (inactive) | 11.6 | 5.31 µM (inactive) |  | 1.03 µM (active) | 9.64 µM (inactive) | 1.69 µM (inactive) | 33.3 µM (inactive) | 31.5 µM (inactive) | 2.36 µM (inactive) | 11.1 µM (inactive) | 18.8 µM (inactive) | 0.918 µM (active) |  | 3.18 µM (inactive) | 0.516 µM (active) |
| COc1cc2nc(-c3cccs3)[nH]c(=O)c2cc1OC | > 100 µM (inactive) | > 100 µM (inactive) | > 100 µM (inactive) | > 100 µM (inactive) | > 100 µM (inactive) | > 100 | > 100 µM (inactive) | 36.6 µM (inactive) | 61.7 µM (inactive) | 65.5 µM (inactive) | 70.6 µM (inactive) | > 100 µM (inactive) | > 100 µM (inactive) | > 100 µM (inactive) | 86.7 µM (inactive) | > 100 µM (inactive) | > 100 µM (inactive) |  | > 100 µM (inactive) | 35.4 µM (inactive) |
| CCOC(=O)[C@@]12CCC(C1=O)[C@](C)(O)C[C@@H]2c1ccccc1 | 79.3 µM (inactive) | > 100 µM (inactive) | 53.2 µM (inactive) | 22.6 µM (inactive) | 75 µM (inactive) | 25.8 | 50.4 µM (inactive) | 79.4 µM (inactive) | 33.7 µM (inactive) |  | 32.6 µM (inactive) | 39 µM (inactive) | 44.4 µM (inactive) | 39.2 µM (inactive) | 32.7 µM (inactive) | 55.1 µM (inactive) | 24.8 µM (inactive) |  | > 100 µM (inactive) | 24.3 µM (inactive) |
| C=CCC1C2CCC(O[Si](C(C)C)(C(C)C)C(C)C)(C(C(=O)OC)C2)C1O (configuration not stated) | 65.8 µM (inactive) | > 100 µM (inactive) | > 100 µM (inactive) | 23.6 µM (inactive) | 38.3 µM (inactive) | 77.3 | 32.9 µM (inactive) | 60.8 µM (inactive) | 60.3 µM (inactive) | 72.6 µM (inactive) | 19.5 µM (inactive) | 38.8 µM (inactive) | > 100 µM (inactive) | 61.8 µM (inactive) | 23.4 µM (inactive) | > 100 µM (inactive) | > 100 µM (inactive) |  | 49.2 µM (inactive) | 13.3 µM (inactive) |
